According to the supplement of paper PMC10307832:

How the values were obtained:
Test in all cases: relative viability (nuclei count vs DMSO), 5 days (fraction); higher = more cells survive
NCI-H2405 = system: NCI-H2405
In short: (§1)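 Relative viability was taken as the ratio of nuclei in treated wells to nuclei in vehicle wells. Lung cancer cell lines in 1536-well plates received compounds by pin tool one day after seeding, either one drug alone or a fixed anchor-drug dose plus five library-drug doses (not always all listed) in √10 steps. Nuclei were counted on 4× images after 5 days of treatment, and values are medians of duplicate plates.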

NCI-H2170 = system: NCI-H2170
In short: as §1

PC-14 = system: PC-14
In short: as §1

EPLC-272H = system: EPLC-272H
In short: as §1

SW 900 = system: SW 900
In short: as §1

NCI-H441 = system: NCI-H441
In short: as §1

RERF-LC-KJ = system: RERF-LC-KJ
In short: as §1

NCI-H1993 = system: NCI-H1993
In short: as §1

COR-L23 = system: COR-L23
In short: as §1

NCI-H3122 = system: NCI-H3122
In short: as §1

NCI-H1563 = system: NCI-H1563
In short: as §1

LOU-NH91 = system: LOU-NH91
In short: as §1

NCI-H647 = system: NCI-H647
In short: as §1

NCI-H2347 = system: NCI-H2347
In short: as §1

NCI-H520 = system: NCI-H520
In short: as §1

HCC-44 = system: HCC-44
In short: as §1

NCI-H1650 = system: NCI-H1650
In short: as §1

ABC-1 = system: ABC-1
In short: as §1

NCI-H2023 = system: NCI-H2023
In short: as §1

NCI-H1734 = system: NCI-H1734
In short: as §1

201T = system: 201T
In short: as §1

NCI-H2085 = system: NCI-H2085
In short: as §1

NCI-H1793 = system: NCI-H1793
In short: as §1

EKVX = system: EKVX
In short: as §1

COc1cc(N2CCC(C(N)=O)CC2)ccc1Nc1nc(N)c(Cl)c(Nc2ccccc2S(=O)(=O)C(C)C)n1 [HG-5-88-01] + COc1cccc2cc(-c3nc([C@H]4CC[C@H](C(=O)O)CC4)n4ncnc(N)c34)[nH]c12 [OSI-027] (partner 0.5 µM)
relative viability (NCI-H2405; first compound 0.04 µM): 0.579 | relative viability (NCI-H2405; first compound 0.1265 µM): 0.559 | relative viability (NCI-H2405; first compound 0.4 µM): 0.539 | relative viability (NCI-H2405; first compound 1.265 µM): 0.343 | relative viability (NCI-H2405; first compound 4 µM): 0.382 | relative viability (NCI-H2170; first compound 0.04 µM): 0.716 | relative viability (NCI-H2170; first compound 0.1265 µM): 0.764 | relative viability (NCI-H2170; first compound 0.4 µM): 0.721 | relative viability (NCI-H2170; first compound 1.265 µM): 0.238 | relative viability (NCI-H2170; first compound 4 µM): 0.601 | relative viability (PC-14; first compound 0.04 µM): 0.849 | relative viability (PC-14; first compound 0.1265 µM): 1.12 | relative viability (PC-14; first compound 0.4 µM): 0.65 | relative viability (PC-14; first compound 1.265 µM): 0.321 | relative viability (PC-14; first compound 4 µM): 0.218 | relative viability (EPLC-272H; first compound 0.04 µM): 0.31 | relative viability (EPLC-272H; first compound 0.1265 µM): 0.278 | relative viability (EPLC-272H; first compound 0.4 µM): 0.294 | relative viability (EPLC-272H; first compound 1.265 µM): 0.242 | relative viability (EPLC-272H; first compound 4 µM): 0.0931 | relative viability (SW 900; first compound 0.04 µM): 0.505 | relative viability (SW 900; first compound 0.1265 µM): 0.646 | relative viability (SW 900; first compound 0.4 µM): 0.6 | relative viability (SW 900; first compound 1.265 µM): 0.57 | relative viability (SW 900; first compound 4 µM): 0.381 | relative viability (NCI-H441; first compound 0.04 µM): 0.787 | relative viability (NCI-H441; first compound 0.1265 µM): 0.77 | relative viability (NCI-H441; first compound 0.4 µM): 0.848 | relative viability (NCI-H441; first compound 1.265 µM): 0.437 | relative viability (NCI-H441; first compound 4 µM): 0.421 | relative viability (RERF-LC-KJ; first compound 0.04 µM): 0.637 | relative viability (RERF-LC-KJ; first compound 0.1265 µM): 0.54 | relative viability (RERF-LC-KJ; first compound 0.4 µM): 0.506 | relative viability (RERF-LC-KJ; first compound 1.265 µM): 0.345 | relative viability (RERF-LC-KJ; first compound 4 µM): 0.308 | relative viability (NCI-H1993; first compound 0.04 µM): 0.536 | relative viability (NCI-H1993; first compound 0.1265 µM): 0.504 | relative viability (NCI-H1993; first compound 0.4 µM): 0.52 | relative viability (NCI-H1993; first compound 1.265 µM): 0.532 | relative viability (NCI-H1993; first compound 4 µM): 0.536 | relative viability (COR-L23; first compound 0.04 µM): 0.772 | relative viability (COR-L23; first compound 0.1265 µM): 0.79 | relative viability (COR-L23; first compound 0.4 µM): 0.646 | relative viability (COR-L23; first compound 1.265 µM): 0.55 | relative viability (COR-L23; first compound 4 µM): 0.505 | relative viability (NCI-H3122; first compound 0.04 µM): 0.226 | relative viability (NCI-H3122; first compound 0.1265 µM): 0.213 | relative viability (NCI-H3122; first compound 0.4 µM): 0.114 | relative viability (NCI-H3122; first compound 1.265 µM): 0.149 | relative viability (NCI-H3122; first compound 4 µM): 0.129 | relative viability (NCI-H1563; first compound 0.04 µM): 0.715 | relative viability (NCI-H1563; first compound 0.1265 µM): 0.754 | relative viability (NCI-H1563; first compound 0.4 µM): 0.709 | relative viability (NCI-H1563; first compound 1.265 µM): 0.638 | relative viability (NCI-H1563; first compound 4 µM): 0.573 | relative viability (LOU-NH91; first compound 0.04 µM): 0.602 | relative viability (LOU-NH91; first compound 0.1265 µM): 0.635 | relative viability (LOU-NH91; first compound 0.4 µM): 0.615 | relative viability (LOU-NH91; first compound 1.265 µM): 0.442 | relative viability (LOU-NH91; first compound 4 µM): 0.451 | relative viability (NCI-H647; first compound 0.04 µM): 0.622 | relative viability (NCI-H647; first compound 0.1265 µM): 0.63 | relative viability (NCI-H647; first compound 0.4 µM): 0.613 | relative viability (NCI-H647; first compound 1.265 µM): 0.566 | relative viability (NCI-H647; first compound 4 µM): 0.648 | relative viability (NCI-H2347; first compound 0.04 µM): 0.363 | relative viability (NCI-H2347; first compound 0.1265 µM): 0.448 | relative viability (NCI-H2347; first compound 0.4 µM): 0.388 | relative viability (NCI-H2347; first compound 1.265 µM): 0.25 | relative viability (NCI-H2347; first compound 4 µM): 0.274 | relative viability (NCI-H520; first compound 0.04 µM): 0.23 | relative viability (NCI-H520; first compound 0.1265 µM): 0.258 | relative viability (NCI-H520; first compound 0.4 µM): 0.236 | relative viability (NCI-H520; first compound 1.265 µM): 0.289 | relative viability (NCI-H520; first compound 4 µM): 0.221 | relative viability (HCC-44; first compound 0.04 µM): 0.491 | relative viability (HCC-44; first compound 0.1265 µM): 0.507 | relative viability (HCC-44; first compound 0.4 µM): 0.353 | relative viability (HCC-44; first compound 1.265 µM): 0.392 | relative viability (HCC-44; first compound 4 µM): 0.121 | relative viability (NCI-H1650; first compound 0.04 µM): 0.603 | relative viability (NCI-H1650; first compound 0.1265 µM): 0.657 | relative viability (NCI-H1650; first compound 0.4 µM): 0.399 | relative viability (NCI-H1650; first compound 1.265 µM): 0.32 | relative viability (NCI-H1650; first compound 4 µM): 0.265 | relative viability (ABC-1; first compound 0.04 µM): 0.468 | relative viability (ABC-1; first compound 0.1265 µM): 0.428 | relative viability (ABC-1; first compound 0.4 µM): 0.399 | relative viability (ABC-1; first compound 1.265 µM): 0.348 | relative viability (ABC-1; first compound 4 µM): 0.293 | relative viability (NCI-H2023; first compound 0.04 µM): 0.433 | relative viability (NCI-H2023; first compound 0.1265 µM): 0.407 | relative viability (NCI-H2023; first compound 0.4 µM): 0.205 | relative viability (NCI-H2023; first compound 1.265 µM): 0.109 | relative viability (NCI-H2023; first compound 4 µM): 0.127 | relative viability (NCI-H1734; first compound 0.04 µM): 0.59 | relative viability (NCI-H1734; first compound 0.1265 µM): 0.615 | relative viability (NCI-H1734; first compound 0.4 µM): 0.394 | relative viability (NCI-H1734; first compound 1.265 µM): 0.399 | relative viability (NCI-H1734; first compound 4 µM): 0.386 | relative viability (201T; first compound 0.04 µM): 0.84 | relative viability (201T; first compound 0.1265 µM): 0.745 | relative viability (201T; first compound 0.4 µM): 0.428 | relative viability (201T; first compound 1.265 µM): 0.668 | relative viability (201T; first compound 4 µM): 0.303 | relative viability (NCI-H2085; first compound 0.04 µM): 0.713 | relative viability (NCI-H2085; first compound 0.1265 µM): 0.872 | relative viability (NCI-H2085; first compound 0.4 µM): 0.615 | relative viability (NCI-H2085; first compound 1.265 µM): 0.384 | relative viability (NCI-H2085; first compound 4 µM): 0.321 | relative viability (NCI-H1793; first compound 0.1265 µM): 0.269 | relative viability (NCI-H1793; first compound 0.4 µM): 0.236 | relative viability (NCI-H1793; first compound 4 µM): 0.177 | relative viability (EKVX; first compound 0.04 µM): 0.714 | relative viability (EKVX; first compound 0.1265 µM): 0.719 | relative viability (EKVX; first compound 0.4 µM): 0.724 | relative viability (EKVX; first compound 4 µM): 0.535
